In series [1] the target is T1, ATP-dependent translocase ABCB1 (Homo sapiens, UniProt P08183). Particulars: dog.
Description: (§1) Apparent permeability (Papp) from apical to basolateral side determined in MDR1-MDCKII cells
In series [2] the target is T1, ATP-dependent translocase ABCB1. Particulars: dog. The source holds these as a separate data set.
Description: (§2) Apparent permeability (Papp) from basolateral to apical side determined in MDR1-MDCKII cells
Series [3] has the same target. Conditions: spodoptera frugiperda, sf9, 20 µM.
Description: Drug-stimulated Pgp ATPase activity ratio determined in MDR1-Sf9 cell membranes with test compound at a concentration of 20uM
Series [4] concerns the target T2, ATP-dependent translocase ABCB1 (MDR1) (Homo sapiens, UniProt P08183). The experiment in a line: in vitro. Particulars: dog, MDCK-MDR1, Papp.
Description: as §1
The target of series [5] is T2, ATP-dependent translocase ABCB1 (MDR1). The experiment in a line: in vitro. Conditions: dog, MDCK-MDR1, Papp. The source holds these as a separate data set.
Description: as §2
The target is the same in series [6]. The experiment in a line: in vitro. Conditions: dog, MDCK-MDR1, Ratio_Papp.
Description: Ratio of apparent permeability from basolateral to apical side over apical to basolateral side determined in MDR1-MDCKII cells
Series [7] addresses T1, ATP-dependent translocase ABCB1. In words: TP_TRANSPORTER: ATP hydrolysis in MDR1-expressing Sf9 cells. The format is functional.

SMILES strings stand for the structures.
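For Ratio ATPase activity in this document: Compound-stimulated ATPase activity measured in membrane preparations of MDR1-expressing Sf9 cells.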

T1 sequence (P08183 whole entry): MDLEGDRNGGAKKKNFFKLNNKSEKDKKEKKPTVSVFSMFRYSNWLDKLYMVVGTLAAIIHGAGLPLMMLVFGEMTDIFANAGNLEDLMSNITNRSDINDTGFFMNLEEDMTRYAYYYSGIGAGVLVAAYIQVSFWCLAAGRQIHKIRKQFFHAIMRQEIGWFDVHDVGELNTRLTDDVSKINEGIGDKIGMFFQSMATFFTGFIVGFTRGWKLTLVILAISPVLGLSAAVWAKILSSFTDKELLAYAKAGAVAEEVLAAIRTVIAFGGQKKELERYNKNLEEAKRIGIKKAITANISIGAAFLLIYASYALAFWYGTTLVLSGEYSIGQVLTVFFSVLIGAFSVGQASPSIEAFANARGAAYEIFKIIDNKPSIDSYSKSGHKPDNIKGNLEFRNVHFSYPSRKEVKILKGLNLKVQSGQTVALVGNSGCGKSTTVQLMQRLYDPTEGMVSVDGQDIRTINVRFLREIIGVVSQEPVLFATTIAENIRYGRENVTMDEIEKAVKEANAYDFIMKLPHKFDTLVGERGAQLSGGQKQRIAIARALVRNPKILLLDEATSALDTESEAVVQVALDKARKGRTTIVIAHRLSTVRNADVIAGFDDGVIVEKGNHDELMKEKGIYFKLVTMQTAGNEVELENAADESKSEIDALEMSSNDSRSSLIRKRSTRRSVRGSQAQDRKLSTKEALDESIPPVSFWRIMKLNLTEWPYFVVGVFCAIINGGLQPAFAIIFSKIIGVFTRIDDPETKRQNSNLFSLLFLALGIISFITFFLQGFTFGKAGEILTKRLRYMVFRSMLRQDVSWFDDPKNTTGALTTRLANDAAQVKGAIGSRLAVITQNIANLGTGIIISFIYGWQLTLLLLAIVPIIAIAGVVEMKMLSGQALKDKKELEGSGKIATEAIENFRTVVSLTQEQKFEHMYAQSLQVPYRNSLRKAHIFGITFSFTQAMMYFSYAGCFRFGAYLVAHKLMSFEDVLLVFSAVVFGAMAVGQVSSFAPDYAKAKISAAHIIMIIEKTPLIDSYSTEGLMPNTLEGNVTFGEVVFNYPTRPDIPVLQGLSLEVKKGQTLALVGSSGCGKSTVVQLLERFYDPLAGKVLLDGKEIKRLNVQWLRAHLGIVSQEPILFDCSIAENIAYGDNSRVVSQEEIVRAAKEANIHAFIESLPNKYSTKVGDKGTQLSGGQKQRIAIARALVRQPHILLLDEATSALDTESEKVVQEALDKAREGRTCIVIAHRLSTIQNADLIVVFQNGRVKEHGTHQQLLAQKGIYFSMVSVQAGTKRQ
T2 sequence (P08183 whole entry): as above

One may read the Papp as the rate of passage across a membrane or cell layer, normalised by area and donor concentration. Higher therefore signals fast passage. In general, Papp A→B refers to how fast a substance crosses the layer from the apical side. The low end stands for slow passage, the high end for fast passage. In general, Papp B→A refers to the apparent permeability from the basolateral to the apical side of a cell layer. The efflux ratio is a quotient of directional permeabilities that is used to spot active efflux. On to `OC[C@@H](O)[C@@H](O)[C@H](O)[C@H](O)CO` [MANNITOL], for which the figures for the Papp in series [1] (mdr1-mdckii) and in series [2] (mdr1-mdckii) were 11.3 nm/s and 9.15 nm/s, respectively. For the same molecule, the Ratio_ATPase activity in series [3] was determined as 1.25. Also, the Papp A→B in series [4] was 11.3 nm/s. In series [5], this molecule yielded an apparent permeability from basolateral to apical (Papp B→A) of 9.15 nm/s. In series [6], the efflux ratio worked out at 0.82.

For the molecule `CC(C)NCC(O)COc1cccc2ccccc12` (stereo unspecified) [PROPRANOLOL], the Papp in series [1] (MDCK-MDR1) worked out at 496 nm/s; in series [2] (MDCK-MDR1), 514 nm/s. The same molecule registered a Ratio_ATPase activity in series [3] of 1.33. Also, the Papp A→B in series [4] was determined as 496 nm/s. The same molecule registered a Papp B→A in series [5] of 514 nm/s. Besides, the efflux ratio in series [6] is 1.04.

On to `CC(C)CN(C[C@@H](O)[C@H](Cc1ccccc1)NC(=O)O[C@H]1CCOC1)S(=O)(=O)c1ccc(N)cc1`, for which the apparent permeability (Papp) was found to be 21.7 nm/s in series [1] (mdr1-mdckii) and 703 nm/s in series [2] (mdr1-mdckii). In addition, the Papp A→B in series [4] is 37.3 nm/s. In series [5], this molecule gave a Papp B→A of 987 nm/s.

On to `CCC1=C[C@@H]2CN(C1)Cc1c([nH]c3ccccc13)[C@@](C(=O)OC)(c1cc3c(cc1OC)N(C)[C@H]1[C@@](O)(C(=O)OC)[C@H](OC(C)=O)[C@]4(CC)C=CCN5CC[C@]31[C@@H]54)C2` [VINORELBINE], for which the Activity entry in series [7] is “is not a substrate [-]”. This molecule had a Ratio_ATPase activity in series [3] of 1.15. The Papp A→B in series [4] worked out at 2.52 nm/s. Also, in series [5], the Papp B→A was 176 nm/s. Besides, in series [6], the efflux ratio was determined as 69.8.

As for `COc1cc(Cc2cnc(N)nc2N)cc(OC)c1OC` [TRIMETHOPRIM], the Activity entry in series [7] is “substrate [+]”. The molecule further yielded a Ratio_ATPase activity in series [3] of 3.61. In series [4], this molecule returned a Papp A→B of 73.9 nm/s. For the same molecule, in series [5], the basolateral-to-apical permeability (Papp B→A) is 267 nm/s. Further, the efflux ratio in series [6] worked out at 3.61.

Take `COC(=O)Nc1nc2ccc(C(=O)c3ccccc3)cc2[nH]1` [MEBENDAZOLE]: the Activity result in series [7] is “substrate [+]”. The Ratio_ATPase activity in series [3] was 2. The same molecule had a Papp A→B in series [4] of 714 nm/s. Moreover, the Papp B→A in series [5] came out at 648 nm/s. Moreover, the efflux ratio in series [6] was 0.91.

As to `CC(=O)O[C@H]1C(=O)[C@@]2(C)[C@H]([C@H](OC(=O)c3ccccc3)[C@]3(O)C[C@H](OC(=O)[C@H](O)[C@@H](NC(=O)c4ccccc4)c4ccccc4)C(C)=C1C3(C)C)[C@]1(OC(C)=O)CO[C@@H]1C[C@@H]2O` [PACLITAXEL], the Activity entry in series [7] is “substrate [+]”. In series [3], this molecule yielded a Ratio_ATPase activity of 2.63. Further, the Papp A→B in series [4] is less than 1.25 nm/s. This molecule also had a basolateral-to-apical permeability (Papp B→A) in series [5] of 135 nm/s. In addition, in series [6], the efflux ratio was greater than 108.

(Values after ChEMBL document CHEMBL1908284, “Rational use of in vitro P-glycoprotein assays in drug discovery” (J Pharmacol Exp Ther, 2001).)
